Assay results as given in patent publication US20250115654A1, “PHARMACEUTICAL COMPOSITION OF GLP-1 RECEPTOR AND GIP RECEPTOR DUAL AGONIST, AND USE THEREOF” (FUJIAN SHENGDI PHARMACEUTICAL CO., LTD., priority 2021, published 2025).
Like-named read-outs stand apart in the source and are kept apart here. Numbered stars: 1 amine (or outer) side, 2 acyl side, 3 side chain; on linkers, the order of the positions; unused ones are H or OH. Square brackets hold non-standard residues; d marks the D form. Side chains are listed from the residue outwards. Peptide text beside a SMILES is read from it. * marks the point of attachment. C20 diacid = O=C(O)CCCCCCCCCCCCCCCCCCC(=O)*; γGlu = O=C(O)[C@H](CCC(=O)[*:2])N[*:1]; AEEA = NCCOCCOCC(=O)O; Aib = CC(C)(N)C(=O)O

Tests used:
[1] = Stability of compounds in human plasma (LC-MS); assay type: in vitro ADME; conditions: for remaining at 1 h, 0.1 mg/mL: 60 min; for remaining at 2 h, 0.1 mg/mL: 120 min; for remaining at 4 h, 0.1 mg/mL: 240 min
Procedure: 5 μL of each of samples at concentrations of 20 ng/mL, 50 ng/mL, 100 ng/mL, 200 ng/mL, 500 ng/mL, 1000 ng/mL, 2000 ng/mL, 5000 ng/mL, and 10000 ng/mL was added to 45 L of human plasma. The content of the compounds in the samples was determined by the LC-MS method and a standard curve was formed. 5 μL of a 1 mg/mL polypeptide solution was added to 45 μL of human plasma. […] With the content at 0 min as the standard (100%), the relative content of the retained compounds in the samples at other time points was calculated.

human GIPR = molecular target: T1, human GIPR (Homo sapiens, UniProt P48546); experiment: Agonist activity against GIPR, cAMP HTRF in CHO-K1 cells transiently transfected with hGIP receptor; assay type: cell-based
T1 construct: expressed in transfected cells; host or cells: wild-type CHO-K1, transient transfection with hGIP receptor plasmid (Fugene HD)
T1 sequence (P48546 22-466): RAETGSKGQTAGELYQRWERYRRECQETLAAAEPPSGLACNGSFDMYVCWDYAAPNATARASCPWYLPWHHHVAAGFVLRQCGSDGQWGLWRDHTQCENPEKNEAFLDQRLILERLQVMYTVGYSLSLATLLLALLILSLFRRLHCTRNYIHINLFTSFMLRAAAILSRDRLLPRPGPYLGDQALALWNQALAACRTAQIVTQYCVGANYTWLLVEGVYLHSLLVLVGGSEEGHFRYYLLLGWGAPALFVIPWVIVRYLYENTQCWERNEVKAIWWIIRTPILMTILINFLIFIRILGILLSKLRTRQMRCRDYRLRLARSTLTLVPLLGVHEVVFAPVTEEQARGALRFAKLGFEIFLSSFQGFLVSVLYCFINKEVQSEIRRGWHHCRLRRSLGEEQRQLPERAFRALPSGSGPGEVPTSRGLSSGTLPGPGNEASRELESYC
Procedure: Wild-type CHO-K1 cells were collected, and the cell suspension was adjusted to an appropriate density, seeded in a 6-well plate at 2 mL/well, and placed in an incubator at 37° C. with 5% CO2 for adherence culture overnight.

human GLP-1R = human GLP-1R (Homo sapiens, UniProt P43220); experiment: Agonist activity against GLP-1R, cAMP HTRF in CHO-K1/GLP-1R/CRE-luc stable cells
Sequence of human GLP-1R (P43220 24-463): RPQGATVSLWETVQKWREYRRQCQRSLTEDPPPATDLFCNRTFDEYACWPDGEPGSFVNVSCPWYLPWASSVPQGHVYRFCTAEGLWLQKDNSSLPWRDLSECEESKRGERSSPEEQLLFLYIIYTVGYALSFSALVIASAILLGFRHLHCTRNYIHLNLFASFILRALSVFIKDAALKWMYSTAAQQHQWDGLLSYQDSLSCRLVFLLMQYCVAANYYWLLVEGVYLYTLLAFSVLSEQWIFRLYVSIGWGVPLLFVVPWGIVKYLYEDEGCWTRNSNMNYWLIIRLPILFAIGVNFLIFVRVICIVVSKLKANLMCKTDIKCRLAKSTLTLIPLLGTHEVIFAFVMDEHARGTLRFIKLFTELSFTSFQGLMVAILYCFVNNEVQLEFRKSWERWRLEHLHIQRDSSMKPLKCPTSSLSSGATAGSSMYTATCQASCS

[2] = molecular target: T2, human glucose-dependent insulinotropic polypeptide receptor (GIPR) (human) (UniProt P48546)
T2 sequence: T1 sequence (P48546 22-466)

[3] = test system: diet-induced-obesity mice; experiment: Body weight of diet-induced-obesity mice, subcutaneous administration once every 3 days; assay type: in vivo, C57BL/6 mice; conditions: for Body weight change (%, mean ± SD): 10 nmol/kg
[4] = Pharmacokinetics in Balb/c mice after a single subcutaneous injection; assay type: in vivo; conditions: male, mouse, sc, mice plasma, 30 nmol/kg
Procedure: (§1) Male Balb/c mice weighing 18-30 g and aged 7-9 weeks were purchased from Shanghai Jiesijie Laboratory Animal Co., Ltd. After compound 7 #was prepared in a buffer containing 20 mM citric acid (pH=7.0), compound 7 #was subcutaneously injected into mice at a dose of 30 nmol/kg body weight via left side of abdomen, and 0.2 mL of blood was separately collected at time points of 0 h, 0.083 h, 0.25 h, 0.5 h, 1 h, 2 h, 4 h, 6 h, 8 h, 24 h, and 32 h. The collected blood of mice was centrifuged at 6000 rpm for 6 min at 4° C. to separate the plasma. The content of compound 7 #in plasma of mice was assayed by the experimental procedures of Example 5.2.

normal mice = experiment: Blood glucose in normal mice after a single subcutaneous administration and intraperitoneal glucose; assay type: in vivo, C57BL/6 mice; conditions: 10 nmol/kg sc; for Blood glucose (mmol/L, mean ± SD): glucose ip 18 h later
Procedure: 18 h later, a glucose solution at a concentration of 0.2 g/mL was intraperitoneally injected. Blood glucose values were measured by collecting blood from the tail of mice at time points of 0 min, 15 min, 30 min, 60 min, and 120 min according to the experimental design. The specific procedures were as follows: the mouse was physically immobilized with the tail exposed, a little part was cut off at the tail end, then the tail was squeezed to bleed, and blood glucose was determined using a Roche active glucometer after the 1st drop of blood was discarded. The area under the blood glucose curve (AUC) was calculated from the results of all time points.

[5] = Pharmacokinetics in Balb/c mice after a single intravenous injection; assay type: in vivo; conditions: male, mouse, mice plasma, 30 nmol/kg
Procedure: as §1, with “intravenous” for “subcutaneously”, “tail vein,” for “left side of abdomen,”, “3.3.” for “5.2.”

[6] = molecular target: T3, human glucose-dependent insulinotropic polypeptide receptor (GIPR) (human, UniProt P48546); experiment: cell-based or functional assay
T3 sequence: T1 sequence (P48546 22-466)

[7] = molecular target: human glucagon-like peptide-1 receptor (GLP-1R) (human, UniProt P43220); experiment: cell-based or functional assay
[8] = human, read-out: Relative content of compounds retained in plasma (%)

In the case of `CC[C@H](C)[C@H](NC(=O)[C@H](CC(C)C)NC(=O)[C@H](Cc1c[nH]c2ccccc12)NC(=O)[C@H](CCC(N)=O)NC(=O)[C@@H](NC(=O)[C@H](Cc1ccccc1)NC(=O)[C@H](C)NC(=O)[C@H](CCCCNC(=O)COCCOCCNC(=O)COCCOCCNC(=O)CC[C@H](NC(=O)CCCCCCCCCCCCCCCCCCC(=O)O)C(=O)O)NC(=O)[C@H](CCC(N)=O)NC(=O)[C@H](C)NC(=O)[C@@H](NC(=O)[C@H](CCCCN)NC(=O)[C@H](CC(=O)O)NC(=O)[C@H](CC(C)C)NC(=O)C(C)(C)NC(=O)[C@@H](NC(=O)[C@H](CO)NC(=O)[C@H](Cc1ccc(O)cc1)NC(=O)[C@H](CC(=O)O)NC(=O)[C@H](CO)NC(=O)[C@@H](NC(=O)[C@H](Cc1ccccc1)NC(=O)[C@@H](NC(=O)CNC(=O)[C@H](CCC(=O)O)NC(=O)C(C)(C)NC(=O)[C@@H](N)Cc1ccc(O)cc1)[C@@H](C)O)[C@@H](C)O)[C@@H](C)CC)[C@@H](C)CC)C(C)C)C(=O)N[C@@H](C)C(=O)NCC(=O)NCC(=O)N1CCC[C@H]1C(=O)N[C@@H](CO)C(=O)N[C@@H](CO)C(=O)NCC(=O)N[C@@H](C)C(=O)N1CCC[C@H]1C(=O)N1CCC[C@H]1C(=O)N1CCC[C@H]1C(=O)N[C@@H](CO)C(N)=O` [LY3298176, reference compound], the remaining at 1 h, 0.1 mg/mL [1, 8] is reported as 115%, the remaining at 2 h, 0.1 mg/mL [1, 8] is reported as 118% and the remaining at 4 h, 0.1 mg/mL [1, 8] is reported as 113%. For the same molecule, the EC50 (human GIPR) was 0.031 nM.

In the case of `CC[C@H](C)[C@H](NC(=O)[C@H](CCCCN)NC(=O)[C@H](CCC(=O)O)NC(=O)[C@H](CCCCNC(=O)COCCOCCNC(=O)COCCOCCNC(=O)CC[C@H](NC(=O)CCCCCCCCCCCCCCCCCCC(=O)O)C(=O)O)NC(=O)[C@H](Cc1ccc(O)cc1)NC(=O)[C@@H](NC(=O)[C@H](CO)NC(=O)[C@H](Cc1ccc(O)cc1)NC(=O)[C@H](CC(=O)O)NC(=O)[C@H](CO)NC(=O)[C@@H](NC(=O)[C@H](Cc1ccccc1)NC(=O)[C@@H](NC(=O)CNC(=O)[C@H](CCC(=O)O)NC(=O)C(C)(C)NC(=O)[C@@H](N)Cc1ccc(O)cc1)[C@@H](C)O)[C@@H](C)O)[C@@H](C)CC)C(=O)N[C@@H](C)C(=O)N[C@@H](C)C(=O)N[C@@H](CCC(N)=O)C(=O)N[C@@H](CCC(=O)O)C(=O)N[C@@H](Cc1ccccc1)C(=O)N[C@H](C(=O)N[C@@H](CC(N)=O)C(=O)N[C@@H](Cc1c[nH]c2ccccc12)C(=O)N[C@@H](CC(C)C)C(=O)N[C@H](C(=O)N[C@@H](C)C(=O)NCC(=O)NCC(=O)N1CCC[C@H]1C(=O)N[C@@H](CO)C(=O)N[C@@H](CO)C(=O)NCC(=O)N[C@@H](C)C(=O)N1CCC[C@H]1C(=O)N1CCC[C@H]1C(=O)N1CCC[C@H]1C(=O)N[C@@H](CO)C(N)=O)[C@@H](C)CC)[C@@H](C)CC` [Compound 14] (H-Y[Aib]EGTFTSDYSIYK([AEEA-AEEA-γGlu-C20 diacid])EKIAAQEFINWLIAGGPSSGAPPPS-NH2), the EC50 (human GLP-1R) is reported as 0.013 nM and the EC50 (human GIPR; Table 6 run, read-out: Activity against human GIPR (EC50 nM)) is reported as 0.13 nM.

Molecule LY3298176 (peptide) has an Activity against human GIPR (EC50 nM); cAMP, HTRF [2] of 0.031 nM.

In the case of `CC[C@H](C)[C@H](NC(=O)[C@H](CCCCN)NC(=O)[C@H](CC(=O)O)NC(=O)[C@H](CCCCNC(=O)COCCOCCNC(=O)COCCOCCNC(=O)CC[C@H](NC(=O)CCCCCCCCCCCCCCCCCCC(=O)O)C(=O)O)NC(=O)[C@H](Cc1ccc(O)cc1)NC(=O)[C@@H](NC(=O)[C@H](CO)NC(=O)[C@H](Cc1ccc(O)cc1)NC(=O)[C@H](CC(=O)O)NC(=O)[C@H](CO)NC(=O)[C@@H](NC(=O)[C@H](Cc1ccccc1)NC(=O)[C@@H](NC(=O)CNC(=O)[C@H](CCC(=O)O)NC(=O)C(C)(C)NC(=O)[C@@H](N)Cc1ccc(O)cc1)[C@@H](C)O)[C@@H](C)O)[C@@H](C)CC)C(=O)N[C@@H](C)C(=O)N[C@@H](C)C(=O)N[C@@H](CCC(N)=O)C(=O)N[C@@H](CCC(=O)O)C(=O)N[C@@H](Cc1ccccc1)C(=O)N[C@H](C(=O)N[C@@H](CC(N)=O)C(=O)N[C@@H](Cc1c[nH]c2ccccc12)C(=O)N[C@@H](CC(C)C)C(=O)N[C@@H](CC(C)C)C(=O)N[C@@H](C)C(=O)NCC(=O)NCC(=O)N1CCC[C@H]1C(=O)N[C@@H](CO)C(=O)N[C@@H](CO)C(=O)NCC(=O)N[C@@H](C)C(=O)N1CCC[C@H]1C(=O)N1CCC[C@H]1C(=O)N1CCC[C@H]1C(=O)N[C@@H](CO)C(N)=O)C(C)C` [Compound 7#] (H-Y[Aib]EGTFTSDYSIYK([AEEA-AEEA-γGlu-C20 diacid])DKIAAQEFVNWLLAGGPSSGAPPPS-NH2), the “Body weight change (%, mean ± SD)” value ([3]; Day 1) is reported as 0%, the “Body weight change (%, mean ± SD)” value ([3]; Day 4) is reported as −11.0 ± 1.0% and the “Body weight change (%, mean ± SD)” value ([3]; Day 7) is reported as −17.6 ± 2.6%. The “Body weight change (%, mean ± SD)” value ([3]; Day 10) was −22.6 ± 5.9%, the “Body weight change (%, mean ± SD)” value ([3]; Day 13) was −22.3 ± 6.3% and the “Body weight change (%, mean ± SD)” value ([3]; Day 16) was −22.7 ± 6.9%. The “Body weight change (%, mean ± SD)” value ([3]; Day 19) was −25.9 ± 6.2%, the “Body weight change (%, mean ± SD)” value ([3]; Day 22) was −23.9 ± 5.6% and the “Body weight change (%, mean ± SD)” value ([3]; Day 25) was −23.9 ± 5.6%. The “Body weight change (%, mean ± SD)” value ([3]; Day 28) was −25.5 ± 5.3%, the “body weight-reducing effect on high-fat food-induced-obesity mice” value ([3]; doses of 3, 10 and 100 nmol/kg) was “significant body weight-reducing effect” and the “Relative content of compounds retained in plasma (%)” value ([1]; 0 min (standard 100%)) was 100.00%. It also gave a remaining at 0.5 h, 0.1 mg/mL ([1]; human, 30 min, read-out: Relative content of compounds retained in plasma (%)) of 101%, a remaining at 1 h, 0.1 mg/mL [1, 8] of 102% and a remaining at 2 h, 0.1 mg/mL [1, 8] of 103%. For the same molecule, the remaining at 4 h, 0.1 mg/mL [1, 8] was > 90%, the AUC(0-inf) [4] was 14.5 µg·h/mL and the half-life [4] was 10.1 h. For the same molecule, the EC50 (human GIPR) was 0.11 nM, the “reduction of area under the blood glucose curve compared with placebo” value (normal mice) was “more than 60%” and the “AUC (area under the blood glucose curve)” value (normal mice; 0-120 min) was 10.7 ± 1.8 mmol·h/L. The “Blood glucose (mmol/L, mean ± SD)” value (normal mice; 0 min) was 4.4 ± 0.8 mmol/L, the “Blood glucose (mmol/L, mean ± SD)” value (normal mice; 15 min) was 6.7 ± 0.8 mmol/L and the “Blood glucose (mmol/L, mean ± SD)” value (normal mice; 30 min) was 6.2 ± 1.3 mmol/L. The “Blood glucose (mmol/L, mean ± SD)” value (normal mice; 60 min) was 5.7 ± 1.2 mmol/L, the “Blood glucose (mmol/L, mean ± SD)” value (normal mice; 120 min) was 3.8 ± 1.1 mmol/L and the AUC(0-inf) [5] was 16.1 µg·h/mL. The half-life [5] was 13 h.

With H-Y[Aib]EGTFTSDYSIYK([AEEA-AEEA-γGlu-C20‑OH])DKIAAQEFVNWLLAGGPSSGAPPPS-NH2 [compound 7# H-YAibEGTFTSDYSIYK(OEG-OEG-yGlu-C20-OH)DKIAAQEFVNWLLAGGPSSGAPPPS-NH2] the “Activity against human GIPR (EC50 nM); cAMP, HTRF” value [6] was 0.11 nM and the “Activity against human GLP-1R (EC50 nM); cAMP, HTRF” value [7] was 0.021 nM.
